In the METLIN SMRT retention time set (Domingo-Almenara et al. 2019):

Test: gradient 5% acetonitrile 3 min, to 50% in 2 min, to 85% in 15 min, held 3 min, 100 µL/min
Conditions: column: Zorbax Extend-C18 2.1 x 50 mm; eluents: water / acetonitrile, 0.1% formic acid
Summary of the method: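 Using water and acetonitrile that each contained 0.1% formic acid, mixtures of ~100 pure standards were separated at 100 μL/min on a Zorbax Extend-C18 column (2.1 × 50 mm, 1.8 μm). The HPLC fed a quadrupole time-of-flight mass spectrometer working in positive and negative ionization mode, with dead and dwell volumes of 40 μL and 900 μL. Data were acquired over 3 months. Retention time was read from computationally picked adduct peaks after manual inspection of each.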

RP-LC retention time | Compound
1020 s | CS(=O)(=O)N1CCC(C(=O)Nc2ccc(Cl)c(C(F)(F)F)c2)Oc2ccccc21 (stereo not drawn)
610 s | COc1nn(C)cc1C(=O)Nc1nnc(C2CC(=O)N(c3ccccc3)C2)o1 (stereo not drawn)
1150 s | Cc1cc(OCC(=O)N2CCC(C)CC2)nc(-c2ccc(Cl)cc2)n1
629 s | CCOC(=O)c1[nH]c(C)c(CCC(=O)N2CCCC(C(=O)NCc3ccc(N(C)C)cc3)C2)c1C (stereo not drawn)
917 s | CCn1nnc2c(SCc3cc(OC)cc(OC)c3)ncnc21
1020 s | Cc1noc(C)c1-c1ccc(S(=O)(=O)N2CCCCCC2)cc1
714 s | COC(=O)c1ccc2c(=O)n(-c3ccc(C)c(F)c3)c(N3CCN(c4ccccn4)CC3)nc2c1
698 s | O=S(=O)(c1ccccc1)N1CCN(c2cnn3c(C4CC4)nnc3c2)CC1
679 s | COc1ccc(CNC(=O)c2[nH]c3cc(C)sc3c2CN2CCCC2)cc1
800 s | COc1ccc2c(c1)C=C(C(=O)NCCc1c[nH]c3ccc(OC)cc13)CO2
814 s | COc1cccc(Cn2nc3ccc(S(=O)(=O)N4CCCC4)cn3c2=O)c1
602 s | CC(C)C(=O)Nc1ccc2c(c1)nc(CN1CCCC1)n2C(C)C
971 s | O=c1n(Cc2ccc(F)cc2)nc2c(-c3nc(-c4cccc(F)c4)no3)cccn12
964 s | COc1ccc(-n2c(=O)c3sccc3n(Cc3nc(-c4ccc(F)cc4)no3)c2=O)cc1
1020 s | Cc1ccccc1CNC(=O)C1(C)CCCN(C(=O)Nc2ccc(Br)cc2)C1 (stereo not drawn)
680 s | Clc1ccc(C2(c3ccc(-c4cn[nH]c4)cc3)CCNCC2)cc1
926 s | CCCn1nnc2cc(-c3noc(CN4C(=O)COc5ccccc54)n3)ccc21
1140 s | Cc1ccc(Cl)cc1NC(=O)Cn1c(C)nc2c(sc3nc(-c4ccccc4)ccc32)c1=O
667 s | O=C(NC1CC(=O)N(Cc2ccccc2)C1)c1ccco1 (stereo not drawn)
780 s | O=C(c1nnn(-c2ccc(Cl)cc2)c1-c1cccnc1)N1CCSCC1
1260 s | Cc1cc(Cl)ccc1NS(=O)(=O)c1cc(-c2cc(C(F)(F)F)on2)sc1C
884 s | Nc1ccccc1SC1CC(=O)N(c2ccccc2Cl)C1=O (stereo not drawn)

RP-LC retention time | Compound
639 s | Cc1ccccc1CC(=O)NCC(=O)Nc1nc2ccccc2[nH]1
772 s | Cc1cc(-c2nnc(NC(=O)c3cc(Cl)sc3Cl)o2)n(C)n1
1060 s | CN1C(=O)C2CCCCN2c2ccc(C(=O)N3CCN(c4cccc(Cl)c4)CC3)cc21 (stereo not drawn)
911 s | Cc1c(S(=O)(=O)NCc2ccc3c(c2)CCN3C(=O)CC(C)C)cnn1C(F)F
747 s | O=C(NCc1ccco1)C1CCN(Cc2cc3ccccc3n2Cc2ccccc2)CC1
757 s | Cc1ccc(CNC(=O)N2CCC(N3CCN(Cc4cccc(F)c4)C(=O)C3=O)CC2)cc1
719 s | COc1ccc(C)cc1NC(=O)Cn1c(N2CCOCC2)nc(C)cc1=O
685 s | CCC(=O)NCCc1csc(C2CCCN(C(=O)C(C)(C)C)C2)n1 (stereo not drawn)
620 s | CCc1cc(=O)n(Cc2ncc(C)c(OC)c2C)c(N2CCOCC2)n1
1050 s | Cc1nc(-c2cn(C(C)C)c3ncccc23)sc1C(=O)N1CCCC(C)C1 (stereo not drawn)
939 s | COc1ccc(NC(=O)c2cn(-c3cc(N4CCCCC4C)ncn3)cn2)cc1OC (stereo not drawn)
873 s | CCCCNc1nc(-c2ccc(Cl)cc2)nc2ccccc12
914 s | CC(C)Cn1nc2c(S(=O)(=O)N3CCN(c4ccc(F)cc4)CC3)cccn2c1=O
670 s | COc1ccc(-c2c(C)noc2NC(C)=O)cc1S(=O)(=O)N1CCN(C(=O)c2ccco2)CC1
830 s | COc1ccc2nc(C(=O)NCc3ccc(Cl)cc3)cn2n1
651 s | CC1CCCCN1CCNC(=O)c1cc(S(=O)(=O)N2CCCCC2)ccc1Cl (stereo not drawn)
875 s | COc1ccc(-c2nnc(-c3cccnc3N3CCC4(CC3)OCCO4)o2)cc1
708 s | CCOC(=O)c1c(C)oc2nc(C)nc(N3CCN(Cc4ccc5c(c4)OCO5)CC3)c12
820 s | Cc1csc(-c2ccc(N3CCN(C(=O)c4ccc(F)cc4)CC3)nc2)n1
682 s | O=C(NCCCN1CCc2ccccc2C1)C1CCCN(S(=O)(=O)N2CCCCCC2)C1 (stereo not drawn)
1260 s | COc1ccc2nc3cc(Cl)ccc3c(C#N)c2c1
781 s | CC(=O)c1cccc(S(=O)(=O)NCC2CCN(C(=O)c3cc4ccccc4o3)CC2)c1

RP-LC retention time | Compound
776 s | COc1cc(NC(=O)C2c3ccccc3C(=O)N3CCc4ccccc4C23)cc(OC)c1OC (stereo not drawn)
591 s | COc1ccc(-c2noc(N3CCC(C(=O)NCCN4CCOCC4)CC3)n2)cc1OC
935 s | COc1cccc(Cn2cccc(S(=O)(=O)N3CCCCCC3)c2=O)c1
948 s | Cc1nn(-c2ccccc2)c(C)c1S(=O)(=O)N1CCC(C(=O)Nc2ccc(F)cc2)CC1
910 s | CCOC(=O)N1CCN(c2ncc(S(=O)(=O)c3ccc(Cl)cc3)c(N)n2)CC1
639 s | O=C(NC1CCNCC1)c1[nH]ncc1NC(=O)c1c(Cl)cccc1Cl
844 s | Cc1nc(-c2ccc(C(=O)NCc3ccc4c(c3)OCO4)cc2)cs1
733 s | CC(C)CN1C(=O)c2cccn2CC1CNC(=O)c1cccn1C (stereo not drawn)
1160 s | CCOc1ccc(-c2csc(NC(=O)CCCc3nc(-c4ccccc4Cl)no3)n2)cc1
650 s | c1ccc2c(c1)CCN(c1ncnc3c1CCC3)C2
793 s | CCCN1C(=O)COc2cc(-c3noc(C(=O)NCC(C)c4ccccc4)n3)ccc21 (stereo not drawn)
790 s | CC(NC(=O)C1CCN(C(=O)c2ncn3c2COC(c2ccc(F)cc2)C3)CC1)c1ccc(F)cc1 (stereo not drawn)
754 s | CC(=O)Nc1ccc(NC(=O)C2CCN(S(=O)(=O)c3c(C)nn(-c4ccccc4)c3C)CC2)cc1
973 s | Cn1cc(-c2nc(C(=O)Nc3ccc(F)cc3)cs2)c2cccnc21
1050 s | Cc1nc2cc(-c3noc(CCc4ccccc4)n3)ccc2o1
1180 s | CCc1cccc2[nH]c3cc([N+](=O)[O-])ccc3c12
788 s | Cn1ccc(CN2CCc3ccccc32)cc1=O
726 s | Cc1nn(-c2ccccc2)c(C)c1S(=O)(=O)N1CCC(C(=O)Nc2ccc(Cl)cc2)CC1
636 s | CCN(CC)CCNC(=O)Cn1nc(-n2cccc2)c2c(C)cc(C)nc21
618 s | COc1ccc(OC)c(CNC(=O)C2(CCO)CCN(c3ncccn3)C2)c1 (stereo not drawn)
665 s | Cc1nc(-c2csc(S(=O)(=O)N3CCCC(C(=O)NCCN4CCCCCC4)C3)c2)no1 (stereo not drawn)
663 s | CNC(=O)C1CCCN(c2nc3ncn(CC(=O)Nc4ccccc4C(F)(F)F)c(=O)c3s2)C1 (stereo not drawn)

RP-LC retention time | Compound
750 s | CCOC(=O)c1ccc(NC(=O)c2cc3c(=O)n(CC(C)C)c4ccccc4n3n2)cc1
781 s | CCn1c(=O)c(C(=O)NCc2ccc(C)cc2)nc2cccnc21
874 s | CCCCNC(=O)Cn1c(=O)cc(-c2nc(C3CC3)no2)c2ccccc21
908 s | CCc1noc2nc(C)n(CC(=O)NCCC3=CCCCC3)c(=O)c12
867 s | Cc1nn(CCC(=O)Nc2cccc(Cl)c2)c(=O)c2nn(-c3ccccc3)c(C)c12
792 s | Cc1cn(C)c(CC(=O)NCCN2CCCc3ccccc32)c1C(=O)O
565 s | CCOCCCNC(=O)Cn1ncc2c(N3CCN(c4ccccn4)CC3)ncnc21
834 s | CC(CNC(=O)C1CCCN1S(=O)(=O)c1cc2c(cc1Cl)NC(=O)CO2)c1ccccc1 (stereo not drawn)
817 s | Cc1ccc2c(c1)cc(S(=O)(=O)c1ccccc1)c(=O)n2CC(=O)N1CCCC1
1160 s | O=C(c1ccc(F)cc1Cl)N1CCc2nc(-c3ccc(Cl)cc3)ncc2C1
860 s | COCCc1noc(C2Cc3ccccc3N2C(=O)Nc2ccc3c(c2)OCCO3)n1 (stereo not drawn)
831 s | CC(=O)N1CCc2ccccc2C1C(=O)NC1CCCCCC1 (stereo not drawn)
926 s | CCn1c(=O)c2ccccc2n(Cc2nc(-c3ccc(SC)cc3)no2)c1=O
1030 s | O=S(=O)(c1cccs1)N1CCc2nc(-c3ccc(F)cc3)ncc2C1
877 s | Cc1sc(-c2nnc(C3CC3)o2)cc1NC(=O)Cc1c[nH]c2ccccc12
877 s | Cc1ccc(N2CN(CC#N)S(=O)(=O)c3cccnc32)cc1
893 s | CCOc1ccccc1CNC(=O)c1c(C)sc2ccn(CC)c(=O)c12
827 s | O=C(NCc1ccc(F)cc1Cl)C1CCCN(c2nn3c(=O)c4c(nc3s2)CCCC4)C1 (stereo not drawn)
702 s | O=C(O)c1cc(N2CCCN(c3ncccn3)CC2)ccc1NC(=O)C1CC1
824 s | CSc1ccc(-c2nc3cccc(C)n3c2Nc2ccc(C)cc2)cc1

Compound | RP-LC retention time
COc1ccc2c(c1)C1(CCN(C(=O)C(C)(C)C)C1)C(=O)N2 (stereo not drawn) | 703 s
COc1ccc2c(c1)C1(CCN(C(=O)c3cccc(Cl)c3)C1)C(=O)N2 (stereo not drawn) | 753 s
